Series [1] can be described thus: Microsomal stability, dog microsomes. In kind it is in vitro ADME. The settings on record: relative to verapamil.
A further series concerns U251 human GBM cells. The settings on record: 100 ip together with radiation, daily for 5 days x 3 courses; 6 months plus follow-up. As to the method:
The mechanism of potentiation is impairment of multiple steps in a DNA-damage repair process and inhibition of exit from mitosis. […] Mice bearing subcutaneous (sc) xenografts of U251 human GBM cells were treated with compound 100 intraperitoneally together with radiation, each given daily for 5 days×3 courses.

For series [2], the system named is PP2A in circulating white blood cells. The experiment in a line: Inhibition of PP2A in circulating white blood cells after slow iv 100. In kind it is in vivo. The settings on record: rat.
A short description of series [3]: Microsomal stability, rat microsomes. It is filed as in vitro ADME. The settings on record: relative to verapamil.
For series [4] the following is noted: rat, in vivo.
The conditions of series [5]: in vivo.
The nature of another series: in vivo. The settings on record: rat, po.
Series [6] in a line: Microsomal stability, monkey microsomes. In kind it is in vitro ADME. The settings on record: relative to verapamil.
For series [7] the following is noted: rat, in vivo. This is another data set of the same source.
The nature of series [8]: Microsomal stability, human microsomes. The settings on record: relative to verapamil. In kind it is in vitro ADME.
For series [9] the following is noted: female dogs, day 4, cited from earlier work.
The conditions of series [10]: day 4, cited from earlier work.
Series [11] can be described thus: Microsomal stability, mouse microsomes. The settings on record: relative to verapamil. It is filed as in vitro ADME.
On the set-up of series [12]: species or system SD rats. The settings on record: male, SD, rat, in vivo, iv, 1 mg/kg. As to the method:
105 was dissolved in 4% NaHCO3 in saline for IV administration. The detailed procedure of dosing solution preparation was presented in Appendix I.
Thirteen (13) animals were placed on the study. The animals in IV arm were free access to food and water. One extra animal was used for blank liver and plasma generation (5 mL per animal). The resulting blank liver and plasma was then applied to the development of bioanalytical method and sample bioanalysis for the entire study.
The IV injection was conducted via foot dorsal vein. Animals were free access to food and water before dose.
The animal is restrained manually. Approximately 150 μL of blood/time point is collected into sodium heparin tube via cardiac puncture for terminal bleeding (anesthetized under carbon dioxide). Blood sample will be put on ice and centrifuged to obtain plasma sample (2000 g, 5 min under 4° C.) within 10 minutes.
The animal will be euthanized with carbon dioxide inhalation. Open abdominal cavity with scissor to expose internal organs. Hold the carcass in an upright position and allow the organs to fall forward. Cut the connective tissues and remove the organs. […]
The PK parameters were determined by non-compartmental model of non-compartmental analysis tool, Pharsight Phoenix WinNonlin® 6.2 software. […]

A short description of series [13]: Oral administration of 100 and 151 (Discussion): oral bioavailability, plasma and brain levels.

Where two headings read alike, the source gives them in different places.

The term bioavailability denotes dose-corrected exposure relative to a reference, in per cent. In general, Cmax refers to the peak of the concentration-time curve. Usually Tmax stands for the time at which the peak concentration occurs. As a reminder, the Vz is the apparent volume that relates the amount in the body to the concentration in plasma or blood. A word on the AUC(0-t): it is the area under the concentration-time curve up to a stated or last time point.

Consider `CN1CCN(C(=O)C2C3CCC(O3)C2C(=O)O)CC1` (stereo not drawn) [Compound 100, 3-(4-methylpiperazine-1-carbonyl)-7-oxa-bicyclo[2,2,1]-heptane-2-carboxylic acid], for which the “stability in the presence of microsomes” value in [1], in series [3], in series [6], in [8] and in [11] was “stable relative to verapamil” throughout. The xenografts eliminated in the series on U251 human GBM cells is on record as 60%. For the same compound, the “inhibition of PP2A in circulating white blood cells” value was determined as 9% in [2] (100 slow iv 0.375 mg/kg), 15% in series [2] (100 slow iv 0.75 mg/kg) and 25% in [2] (100 slow iv 1.5 mg/kg). The “passage of the blood brain barrier (BBB) (statement)” value in series [4] and in [5] was “does not readily pass the blood brain barrier” each time. The compound further registered a bioavailability in the series “in vivo” of 1%. Further, in [7], the “presence in plasma after oral administration (statement)” value is on record as “little is present in plasma”. Besides, the AUClast in series [9] (0.15 mg/kg) was 335 ng·h/mL; in [9] (0.30 mg/kg), 1020 ng·h/mL; in series [9] (0.50 mg/kg), 2120 ng·h/mL; in [10] (female rats, 0.5 mg/kg), 452 ng·h/mL; in [10] (female rats, 0.75 mg/kg), 691 ng·h/mL; in series [10] (female rats, 1.25 mg/kg), 2359 ng·h/mL. Moreover, the Cmax in series [9] (0.15 mg/kg) is 370 ng/mL; in series [9] (0.30 mg/kg), 731 ng/mL; in [9] (0.50 mg/kg) it was 1260 ng/mL. In addition, the Co was 566 ng/mL in series [9] (0.15 mg/kg); 857 ng/mL in series [9] (0.30 mg/kg); 1930 ng/mL in series [9] (0.50 mg/kg); 1497 ng/mL in series [10] (female rats, 0.5 mg/kg); 2347 ng/mL in [10] (female rats, 0.75 mg/kg); 3849 ng/mL in series [10] (female rats, 1.25 mg/kg). In addition, the T1/2 is 28.2 min in [9] (0.15 mg/kg); 48.6 min in [9] (0.30 mg/kg); 72 min in [9] (0.50 mg/kg); 15 min in [10] (female rats, 0.5 mg/kg); 35.4 min in [10] (female rats, 0.75 mg/kg); 108 min in series [10] (female rats, 1.25 mg/kg). Further, the Tmax in series [9] (0.15 mg/kg) was 15 min; in [9] (0.30 mg/kg), 21 min; in series [9] (0.50 mg/kg) it was 15 min. For the same compound, the Cl is 17.85 mL/min/kg in [10] (MALE rats, 0.5 mg/kg); 22.32 mL/min/kg in [10] (MALE rats, 0.75 mg/kg); 15.8 mL/min/kg in series [10] (MALE rats, 1.25 mg/kg); 17.42 mL/min/kg in [10] (female rats, 0.5 mg/kg); 13.2 mL/min/kg in series [10] (female rats, 0.75 mg/kg); 7.3 mL/min/kg in [10] (female rats, 1.25 mg/kg). For the same compound, the “% AUC* Extrapolated” value in series [10] (female rats, 0.5 mg/kg) is on record as 5.6%; in [10] (female rats, 0.75 mg/kg), 27%; in series [10] (female rats, 1.25 mg/kg), 17%. The “AUC*” value in [10] (female rats, 0.5 mg/kg) was 479 ng·h/mL; in [10] (female rats, 0.75 mg/kg) it was 949 ng·h/mL; in [10] (female rats, 1.25 mg/kg), 2853 ng·h/mL. Moreover, the “DN AUClast” value is recorded as 904 in series [10] (female rats, 0.5 mg/kg); 921 in series [10] (female rats, 0.75 mg/kg); 1887 in [10] (female rats, 1.25 mg/kg). For the same compound, the “SC AUClast” value in [10] (female rats, 0.5 mg/kg) was 17.7 ng·h/mL; in series [10] (female rats, 0.75 mg/kg), 54.0 ng·h/mL; in series [10] (female rats, 1.25 mg/kg), 747 ng·h/mL. For the same compound, the Vz is 0.378 L/kg in series [10] (female rats, 0.5 mg/kg); 0.677 L/kg in [10] (female rats, 0.75 mg/kg); 1.138 L/kg in [10] (female rats, 1.25 mg/kg).

Consider `O=C(O)C1C2CCC(O2)C1C(=O)O` (stereo not drawn) [Endothal, 7-oxabicyclo[2.2.1]heptane-2,3-dicarboxylic acid], for which, in series [12], the exposure AUC(0-t) came to 3152 ng·h/mL and the Tmax was 15 min.

In the case of `COC(=O)C1C2CCC(O2)C1C(=O)N1CCN(C)CC1` (stereo not drawn) [Compound 151], in [13] (151 given by mouth to rats), the “151 in brain tissue (statement)” value is “barely detectable in brain tissue” and the “levels of compound 100 in the plasma after 151 (statement)” value is “substantial levels of compound 100 in the plasma”. The oral bioavailability result in series [13] (Discussion) is on record as “about 60%”.

Values taken from patent publication US20160264593A1 (priority 2013, published 2016).
